From patent publication US9487515B2, “Compounds modulating c-fms and/or c-kit activity and uses therefor” (Plexxikon Inc., priority 2006, dated 2016)

Molecular target: c-kit (Homo sapiens, UniProt P10721)
Test: c-kit assays of Examples 40 and 41 (AlphaScreen kinase assays at 10 and 100 μM ATP, 33P-ATP filter assay, M-07e SCF-stimulated proliferation and phosphorylation)

Chain of c-kit (P10721 with tags, fused parts or gaps): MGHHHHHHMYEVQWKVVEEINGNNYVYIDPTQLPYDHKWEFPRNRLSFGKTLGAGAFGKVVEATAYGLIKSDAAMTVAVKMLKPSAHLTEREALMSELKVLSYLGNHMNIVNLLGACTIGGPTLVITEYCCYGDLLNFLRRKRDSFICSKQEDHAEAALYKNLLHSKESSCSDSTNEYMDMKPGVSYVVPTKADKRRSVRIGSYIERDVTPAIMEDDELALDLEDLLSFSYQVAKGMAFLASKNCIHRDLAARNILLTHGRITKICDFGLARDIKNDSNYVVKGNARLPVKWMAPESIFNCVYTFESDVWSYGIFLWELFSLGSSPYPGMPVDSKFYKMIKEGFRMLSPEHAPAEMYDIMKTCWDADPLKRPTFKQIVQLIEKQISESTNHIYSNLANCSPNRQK

With `Fc1cccc(CNc2ncc(Cc3c[nH]c4ncc(Cl)cc34)cn2)c1F` [P-0395, [5-(5-Chloro-1H-pyrrolo[2,3-b]pyridin-3-ylmethyl)-pyrimidin-2-yl]-(2,3-difluoro-benzyl)-amine] the IC50 was < 1000 nM.
For `COc1cccc(CNc2ccc(Cc3c[nH]c4ncccc34)cn2)n1` [P-0224, (6-Methoxy-pyridin-2-ylmethyl)-[5-(1H-pyrrolo[2,3-b]pyridin-3-ylmethyl)-pyridin-2-yl]-amine], the IC50 was < 1000 nM.
`Cc1nn(C(=O)NCCc2ccccc2F)c(C)c1Cc1c[nH]c2ncccc12` [P-0148, 3,5-Dimethyl-4-(1H-pyrrolo[2,3-b]pyridin-3-ylmethyl)-pyrazole-1-carboxylic acid [2-(2-fluoro-phenyl)-ethyl]-amide] was tested, and the IC50 was < 1000 nM.
With `Cc1ccc(F)cc1C(=O)Nc1ccc(Cc2c[nH]c3ncccc23)cn1` [P-0118, 5-Fluoro-2-methyl-N-[5-(1H-pyrrolo[2,3-b]pyridin-3-ylmethyl)-pyridin-2-yl]-benzamide] the IC50 was < 1000 nM.
`Fc1ccc(F)c(CNc2ccc(Cc3c[nH]c4ncc(Cl)cc34)cn2)c1` [P-0298, [5-(5-Chloro-1H-pyrrolo[2,3-b]pyridin-3-ylmethyl)-pyridin-2-yl]-(2,5-difluoro-benzyl)-amine] was tested, and the IC50 was < 1000 nM.
For `COc1cccc(CNc2nc(Cl)c(Cc3c[nH]c4ncc(Cl)cc34)s2)c1` [P-0193, [4-Chloro-5-(5-chloro-1H-pyrrolo[2,3-b]pyridin-3-ylmethyl)-thiazol-2-yl]-(3-methoxy-benzyl)-amine], the IC50 was < 1000 nM.
For `FC(F)(F)c1ccc(CNc2nc(Cl)c(Cc3c[nH]c4ncc(Cl)cc34)s2)cn1` [P-0242, [4-Chloro-5-(5-chloro-1H-pyrrolo[2,3-b]pyridin-3-ylmethyl)-thiazol-2-yl]-(6-trifluoromethyl-pyridin-3-ylmethyl)-amine], the IC50 was < 1000 nM.
For `Cc1nc(-c2ccc(C(F)(F)F)cc2)sc1Cn1nc(C)c(Cc2c[nH]c3ncccc23)c1C` [P-0143, 3-{3,5-Dimethyl-1-[4-methyl-2-(4-trifluoromethyl-phenyl)-thiazol-5-ylmethyl]-1H-pyrazol-4-ylmethyl}-1H-pyrrolo[2,3-b]pyridine], the IC50 was < 1000 nM.
For `Brc1cnccc1CNc1ccc(Cc2c[nH]c3ncccc23)cn1` [P-0214, (3-Bromo-pyridin-4-ylmethyl)-[5-(1H-pyrrolo[2,3-b]pyridin-3-ylmethyl)-pyridin-2-yl]-amine], the IC50 was < 1000 nM.
In the case of `CN(C)CCCOc1ccccc1CNc1ccc(Cc2c[nH]c3ncccc23)cn1` [P-0369, [2-(3-Dimethylamino-propoxy)-benzyl]-[5-(1H-pyrrolo[2,3-b]pyridin-3-ylmethyl)-pyridin-2-yl]-amine], the IC50 is reported as < 1000 nM.
For `CC(Nc1ccc(Cc2c[nH]c3ncccc23)cn1)c1ccccc1F` (stereo not drawn) [P-0127, [1-(2-Fluoro-phenyl)-ethyl]-[5-(1H-pyrrolo[2,3-b]pyridin-3-ylmethyl)-pyridin-2-yl]-amine], the IC50 was < 1000 nM.
`Clc1ccc(CNc2ccc(Cc3c[nH]c4ncccc34)nn2)cc1` [P-0092, (4-Chloro-benzyl)-[6-(1H-pyrrolo[2,3-b]pyridin-3-ylmethyl)-pyridazin-3-yl]-amine] was tested, and the IC50 was < 1000 nM.
For `Fc1c(Cl)cccc1CNc1ncc(Cc2c[nH]c3ncccc23)cn1` [P-0311, (3-Chloro-2-fluoro-benzyl)-[5-(1H-pyrrolo[2,3-b]pyridin-3-ylmethyl)-pyrimidin-2-yl]-amine], the IC50 was < 1000 nM.
For `N#Cc1cnc2[nH]cc(Cc3ccc(NCc4ccc(C(F)(F)F)nc4)nc3)c2c1` [P-0273, 3-{6-[(6-Trifluoromethyl-pyridin-3-ylmethyl)-amino]-pyridin-3-ylmethyl}-1H-pyrrolo[2,3-b]pyridine-5-carbonitrile], the IC50 was < 1000 nM.
In the case of `COc1ccc(CNc2ccc(Cc3c[nH]c4ncccc34)cn2)c(OC)n1` [P-0370, (2,6-Dimethoxy-pyridin-3-ylmethyl)-[5-(1H-pyrrolo[2,3-b]pyridin-3-ylmethyl)-pyridin-2-yl]-amine], the IC50 is reported as < 1000 nM.
